# Active and inactive are the calls of the source. No cut-off for these calls is given here.
# Test system: Zea mays
# Test: Increase in GST activity in Zea mays (maize) root at 50 uM applied to seeds incubated for 5 days by [14C]acetochlor-based liquid scintillation assay relative to control
# Type: functional
SMILES,Activity,fold change (FC)
C=CCN(CC=C)C(=O)CBr,Active,–
C=CCN(CC=C)C(=O)CCl,Active,–
CCOCN(C(=O)CCl)c1c(C)cccc1CC,Active,–
CC1(C(Cl)Cl)OCCO1,–,3.64

# Test system: Zea mays
# Test: Effect on GSH content in Zea mays (maize) shoot at 50 uM applied to seeds incubated for 5 days by DNTB-based spectrophotometric analysis relative to control
# Type: functional, organism-based
row,SMILES,Activity
1,CCOC(OCC)C(Cl)Cl,inactive
2,CCCOC(C)(OCCC)C(Cl)Cl,inactive
3,ClC(Cl)C1OCCCCCO1,inactive
4,CCCCOC(C)(OCCCC)C(Cl)Cl,inactive
5,ClC(Cl)C1OCCCCO1,inactive
6,CC1(C(Cl)Cl)OCCCCCO1,inactive
7,CCCOC(OCCC)C(Cl)Cl,inactive
8,CC(C)COC(C)(OCC(C)C)C(Cl)Cl,inactive
9,ClC(Cl)C1OCCCCCCO1,inactive
10,CC1(C)COC(C)(C(Cl)Cl)OC1,inactive
11,CCOC(C)(OCC)C(Cl)Cl,inactive
12,CC1(C(Cl)Cl)OCCCCCCO1,inactive
13,CCCCOC(OCCCC)C(Cl)Cl,inactive
14,ClC(Cl)C1OCCCO1,inactive
15,ClC(Cl)C1(c2ccccc2)OCCO1,inactive
16,ClC(Cl)C1OCCO1,inactive
17,CC1(C(Cl)Cl)OCCCCO1,inactive
18,CC1(C(Cl)Cl)OCCCO1,inactive
19,CC1(C)COC(C(Cl)Cl)OC1,inactive
20,CC(C)COC(OCC(C)C)C(Cl)Cl,inactive
21,CC1(C(Cl)Cl)OCCO1,inactive

# Test system: Zea mays
# Test: Increase in GSH content in Zea mays (maize) root at 50 uM applied to seeds incubated for 5 days by DNTB-based spectrophotometric analysis relative to control
# Type: functional
SMILES,Activity,fold change (FC)
CCCOC(C)(OCCC)C(Cl)Cl,inactive,–
CCOC(C)(OCC)C(Cl)Cl,inactive,–
C=CCNC(=O)CCl [N-ALLYL-2-CHLOROACETAMIDE],–,2.25
ClC(Cl)C1(c2ccccc2)OCCO1,–,>2
C=CCN(CC=C)C(=O)C(Cl)Cl [DICHLORMID],–,1.65

# Test system: Zea mays
# Test: Safening activity against acetochlor-induced phytotoxicity against Zea mays (maize) assessed as increase in shoot length at 50 uM applied pre-emergence measured 14 days after treatment relative to acetochlor-treated control
# Type: functional
row,SMILES,Activity
1,CCOC(OCC)C(Cl)Cl,24%
2,CCCOC(C)(OCCC)C(Cl)Cl,63%
3,CCOC(CBr)OCC [BROMOACETAL],60%
4,ClC(Cl)C1OCCCCCO1,24%
5,ClC(Cl)C1OCCCCO1,24%
6,CC1(C(Cl)Cl)OCCCCCO1,Active
7,CCOC(CCl)OCC [MONOCHLOROACETAL],24%
8,CCCOC(OCCC)C(Cl)Cl,24%
9,ClC(Cl)C1OCCCCCCO1,24%
10,CC1(C)COC(C)(C(Cl)Cl)OC1,Active
11,CCOC(C)(OCC)C(Cl)Cl,62%
12,C=CCNC(=O)CCl [N-ALLYL-2-CHLOROACETAMIDE],48%
13,CC1(C(Cl)Cl)OCCCCCCO1,Active
14,CCCCOC(OCCCC)C(Cl)Cl,24%
15,ClC(Cl)C1OCCCO1,24%
16,ClC(Cl)C1(c2ccccc2)OCCO1,Active
17,ClC(Cl)C1OCCO1,24%
18,CC1(C(Cl)Cl)OCCCCO1,70%
19,CC1(C(Cl)Cl)OCCCO1,68%
20,CC1(C)COC(C(Cl)Cl)OC1,24%
21,CC(C)COC(OCC(C)C)C(Cl)Cl,24%
22,C=CCN(CC=C)C(=O)C(Cl)Cl [DICHLORMID],81%
23,CC1(C(Cl)Cl)OCCO1,64%

# Test system: Zea mays
# Test: Increase in GST activity in Zea mays (maize) root at 50 uM applied to seeds incubated for 5 days by CDNB-based spectrophotometric analysis relative to control
# Type: functional
row,SMILES,fold change (FC)
1,ClC(Cl)C1OCCCCCO1,2
2,ClC(Cl)C1OCCCCCCO1,4

# Test system: Zea mays
# Test: Increase in GSH content in Zea mays (maize) shoot at 50 uM applied to seeds incubated for 5 days by DNTB-based spectrophotometric analysis relative to control
# Type: functional
SMILES,Activity,fold change (FC)
CCCOC(C)(OCCC)C(Cl)Cl,inactive,–
CCOC(CBr)OCC [BROMOACETAL],Active,–
CC1(C(Cl)Cl)OCCCCCO1,Active,–
CCOC(CCl)OCC [MONOCHLOROACETAL],Active,–
CC1(C)COC(C)(C(Cl)Cl)OC1,Active,–
CCOC(C)(OCC)C(Cl)Cl,inactive,–
C=CCNC(=O)CCl [N-ALLYL-2-CHLOROACETAMIDE],–,2.25
CC1(C(Cl)Cl)OCCCCCCO1,Active,–
ClC(Cl)C1(c2ccccc2)OCCO1,–,>2
CC1(C(Cl)Cl)OCCCCO1,Active,–
CC1(C(Cl)Cl)OCCCO1,Active,–
C=CCN(CC=C)C(=O)C(Cl)Cl [DICHLORMID],–,1.78
CC1(C(Cl)Cl)OCCO1,Active,–

# Test system: Zea mays
# Test: Increase in GST activity in Zea mays (maize) shoot at 50 uM applied to seeds incubated for 5 days by CDNB-based spectrophotometric analysis relative to control
# Type: functional, organism-based
row,SMILES,Activity
1,CCOC(OCC)C(Cl)Cl,Active
2,CC1(C(Cl)Cl)OCCCCCO1,Active
3,CC1(C)COC(C)(C(Cl)Cl)OC1,Active
4,CC1(C(Cl)Cl)OCCCCCCO1,Active
5,ClC(Cl)C1(c2ccccc2)OCCO1,Active
6,CC1(C(Cl)Cl)OCCCCO1,Active
7,CC1(C(Cl)Cl)OCCCO1,Active
8,CC1(C(Cl)Cl)OCCO1,Active

# Test system: Zea mays
# Test: Effect on GST activity in Zea mays (maize) shoot at 50 uM applied to seeds incubated for 5 days by CDNB-based spectrophotometric analysis relative to control
# Type: functional, organism-based
row,SMILES,Activity
1,C=CCN(CC=C)C(=O)CBr,inactive
2,C=CCN(CC=C)C(=O)CCl,inactive
3,C=CCNC(=O)CCl [N-ALLYL-2-CHLOROACETAMIDE],inactive
4,C=CCN(CC=C)C(=O)C(Cl)Cl [DICHLORMID],inactive

# Test system: Zea mays
# Test: Effect on GST activity in Zea mays (maize) root at 50 uM applied to seeds incubated for 5 days by [14C]acetochlor-based liquid scintillation assay relative to control
# Type: functional, organism-based
row,SMILES,Activity
1,CC1(C(Cl)Cl)OCCCCO1,inactive

# Test system: Zea mays
# Test: Decrease in GSH content in Zea mays (maize) root at 50 uM applied to seeds incubated for 5 days by DNTB-based spectrophotometric analysis relative to control
# Type: functional, organism-based
row,SMILES,Activity
1,ClC(Cl)C1OCCCCCO1,Active
2,ClC(Cl)C1OCCCCO1,Active
3,ClC(Cl)C1OCCCO1,Active
4,ClC(Cl)C1OCCO1,Active
5,CC1(C)COC(C(Cl)Cl)OC1,Active

# Test system: Zea mays
# Test: Increase in GST activity in Zea mays (maize) shoot at 50 uM applied to seeds incubated for 5 days by [14C]acetochlor-based liquid scintillation assay relative to control
# Type: functional
SMILES,fold change (FC),Activity
CCOC(CBr)OCC [BROMOACETAL],3.76,–
C=CCN(CC=C)C(=O)CBr,–,Active
C=CCN(CC=C)C(=O)CCl,–,Active
CC(C)COC(C)(OCC(C)C)C(Cl)Cl,4.72,–
CCOCN(C(=O)CCl)c1c(C)cccc1CC,–,Active
CC1(C(Cl)Cl)OCCO1,3.93,–

# Test system: Zea mays
# Test: Decrease in GST activity in Zea mays (maize) root at 50 uM applied to seeds incubated for 5 days by CDNB-based spectrophotometric analysis relative to control
# Type: functional, organism-based
row,SMILES,Activity
1,CCOC(OCC)C(Cl)Cl,Active
2,CCOC(CBr)OCC [BROMOACETAL],Active
3,CCOC(CCl)OCC [MONOCHLOROACETAL],Active

# Reference: ChEMBL document CHEMBL3044703, “Safening efficacy of halogenated acetals, ketals and amides and relationship between the structure and effect on glutathione and glutathione S-transferases in maize” (2007)
